# B1: perforin: pore-forming protein, 67-kilodalton multidomain protein (protein, UniProt P14222 22-555, looked up)
# Perforin-1: PCHTAARSECKRSHKFVPGAWLAGEGVDVTSLRRSGSFPVDTQRFLRPDGTCTLCENALQEGTLQRLPLALTNWRAQGSGCQRHVTRAKVSSTEAVARDAARSIRNDWKVGLDVTPKPTSNVHVSVAGSHSQAANFAAQKTHQDQYSFSTDTVECRFYSFHVVHTPPLHPDFKRALGDLPHHFNASTQPAYLRLISNYGTHFIRAVELGGRISALTALRTCELALEGLTDNEVEDCLTVEAQVNIGIHGSISAEAKACEEKKKKHKMTASFHQTYRERHSEVVGGHHTSINDLLFGIQAGPEQYSAWVNSLPGSPGLVDYTLEPLHVLLDSQDPRREALRRALSQYLTDRARWRDCSRPCPPGRQKSPRDPCQCVCHGSAVTTQDCCPRQRGLAQLEVTFIQAWGLWGDWFTATDAYVKLFFGGQELRTSTVWDNNNPIWSVRLDFGDVLLATGGPLRLQVWDQDSGRDDDLLGTCDQAPKSGSHEVRCNLNHGHLKFRYHARCLPHLGGGTCLDYVPQMLLGEPPGNRSGAVW
# Legend:
# infected target cells = assay: in vitro eradication assay, HIV-specific T cells co-cultured with infected target cells; assay type: cell-based; details: in the presence of the latency reversing drug; FIG. 4
# Excerpt: The in vitro cell eradication assay presented in this Example was directed to determining if T pharmacytes can induce expression of HIV expression in latently infected cells and kill those cells. HIV-specific T cells and Cytomegalovirus (CMV)-specific T cells were co-cultured with infected target cells (and mock-infected target cells) without the addition of any exogenous cytokines.
# [1] = test system: B lymphoblastoid cell line (BLCL); assay: lysis of BLCL by recombinant perforin (FSC/SSC flow cytometry); assay type: cell-based; details: FIG. 12A
# Procedure: The next series of experiments were designed to test the effects of different concentrations of recombinant perforin on lysis of a B lymphoblastoid cell line (BLCL). […] The cell populations with FSC/SSC characteristics of viable BLCL have been gated. 1 nM perforin appeared to be sufficient for clear cell lysis. To investigate whether perforin release from T cells is sufficient to trigger release of payload from nanoparticles conjugated to T cells, ICMV nanoparticles encapsulating Alexa-647-labeled OVA were treated with 1 nM perforin for 16 hours, or maintained as a no-treatment control. As a positive control for complete lysis, NPs were treated with 2% Triton X-100. Fluorescence was quantified at 647 nm absorbance and 695 nm emission.
molecule,measurement,setting,value
IL-15: cytokine used as latency reversing drug,response of HIV-specific T cells to infected target cells,infected target cells,specifically respond to these infected target cells only in the presence of latency reversing drugs
B1,perforin concentration sufficient for clear cell lysis,[1],1 nM

# — patent US9415070B2, “Methods and compositions for localized delivery of agents to virally infected cells and tissues” (Massachusetts Institute of Technology, priority 2012, dated 2016)
